Measured values taken from patent US20180369244A1, “BTK Inhibitors to Treat Solid Tumors Through Modulation of the Tumor Microenvironment” (Acerta Pharma B.V., priority 2014, published 2018).

Tests used:
[1] = test system: pancreatic cancer in KPC mice; assay: KPC pancreatic cancer model (spontaneous tumors); assay type: in vivo; settings: 15 mg/kg BID oral
Method: The KPC mouse model recapitulates many of the molecular, histopathologic, and clinical features of human disease (Westphalen and Olive, Cancer J. 2012, 18, 502-510). Combination therapy with gemcitabine was also evaluated in this model. Mice were enrolled after identification of spontaneously appearing tumors in the pancreas that were >100 mm^3 (as assessed by high-resolution ultrasonography).

NK cells = assay: Antibody-dependent NK cell degranulation (CD107a flow cytometry); assay type: cell-based, human
Source text: Cell culture conditions were as follows. […] The HER18 cells were maintained in DEM supplemented with fetal bovine serum, penicillin-streptomycin and. Prior to assay, HER18 cells were harvested using trypsin-EDTA, washed with phosphate-buffered saline (PBS) containing 5% serum and viable cells were counted. […] Cell preparations were washed and then subject to positive selection of CD5+CD19^+ CLL cells using magnetic beads (MACS, Miltenyi Biotech). Cell preparations were used fresh after selection. […] Removal of non NK cells was performed using negative selection by MACS separation. Freshly isolated NK cells were washed three times, enumerated, and then used immediately for ADCC assays.
Lytic granule release was determined as follows. […] Degranulation was evaluated via by flow cytometery by externalization of CD107a, a protein normally present on the inner leaflet of lytic granules, and gating on NK cells (CD3-CD16^+ lymphocytes). The percentage of CD107a positive NK cells was quantified by comparison with a negative control (isotype control, unstained cells/FMO). Control cultures (NK cells cultured without target cells, or NK, target cell co-cultures in the absence of appropriate monoclonal antibody) were also evaluated; all experiments were performed in triplicate.

Which results are given for CC#CC(=O)N1CCC[C@H]1c1nc(-c2ccc(C(=O)Nc3ccccn3)cc2)c2c(N)nccn12 [Formula (II), (S)-4-(8-amino-3-(1-(but-2-ynoyl)pyrrolidin-2-yl)imidazo[1,5-a]pyrazin-1-yl)-N-(pyridin-2-yl)benzamide]?
CD8+ cells in tumor tissues [1]: significant increase; immunosuppressive TAMs, MDSCs and Tregs in tumor tissues [1]: significantly reduced; pancreatic cancer growth and animal survival [1]: substantially slowed pancreatic cancer growth and increased animal survival; survival at day 14 [1]: 6/6; survival at day 28 [1]: 5/6; average tumor volume at day 28 ([1]; predose average 165 mm^3): 272 mm^3; inhibition of trastuzumab-stimulated NK cell degranulation (NK cells; 1 μM, HER18 target cells): no inhibitory effect; reduction of rituximab-stimulated NK cell degranulation (NK cells; DHL-4 target cells): < 2%
